# Experimental data reported in patent US11787825B2 (priority 2021, dated 2023).
# Read-outs that look alike come from different tables or passages of the source.
# Experiments:
# physchem = settings: 25 °C, thermodynamic from solid
# [1] = fasted state simulated intestinal fluid (FaSSIF), fassif
# [2] = fed state simulated intestinal fluid (FeSSIF), fessif
# [3] = 0.1N HCL, 1.0% DMSO, 24-hour incubation at ambient temperature, maximum theoretical compound concentration 100 μM
# [4] = 1×PBS buffer (pH 7.4), 1.0% DMSO, 24-hour incubation at ambient temperature, maximum theoretical compound concentration 100 μM
Compound,solubility (physchem; fassif),pH 2 solubility (pH 2),pH 7 solubility (pH 7.4),solubility (physchem; [1]),solubility (physchem; [2]),pH 2 solubility [3],pH 7 solubility [4],solubility (physchem; fessif)
"Cc1cc(C(=O)NCP(=O)(O)O)cc(OP(=O)(O)O)c1C(C)(C)CC(=O)N(c1nn(CC(F)(F)F)c2c(-c3ccc(C#CC(C)(C)S(C)(=O)=O)nc3[C@H](Cc3cc(F)cc(F)c3)NC(=O)Cn3nc(C(F)(F)F)c4c3C(F)(F)[C@@H]3C[C@H]43)ccc(Cl)c12)S(C)(=O)=O [Compound 60, ((4-(4-(N-(4-chloro-7-(2-((S)-1-(2-((3bS,4aR)-5,5-difluoro-3-(trifluoromethyl)-3b,4,4a,5-tetrahydro-1H-cyclopropa[3,4]cyclopenta[1,2-c]pyrazol-1-yl)acetamido)-2-(3,5-difluorophenyl)ethyl)-6-(3-methyl-3-(methylsulfonyl)but-1-yn-1-yl)pyridin-3-yl)-1-(2,2,2-trifluoroethyl)-1H-indazol-3-yl)methylsulfonamido)-2-methyl-4-oxobutan-2-yl)-3-methyl-5-(phosphonooxy)benzamido)methyl)phosphonic acid]",> 10000 µg/mL,1/64 μM,1/64 μM,,,,,
"Cc1cc(C(=O)N[C@@H](CC(=O)O)C(=O)O)cc(OP(=O)(O)O)c1C(C)(C)CC(=O)N(c1nn(CC(F)(F)F)c2c(-c3ccc(C#CC(C)(C)S(C)(=O)=O)nc3[C@H](Cc3cc(F)cc(F)c3)NC(=O)Cn3nc(C(F)(F)F)c4c3C(F)(F)[C@@H]3C[C@H]43)ccc(Cl)c12)S(C)(=O)=O [Compound 65, (4-(4-(N-(4-chloro-7-(2-((S)-1-(2-((3bS,4aR)-5,5-difluoro-3-(trifluoromethyl)-3b,4,4a,5-tetrahydro-1H-cyclopropa[3,4]cyclopenta[1,2-c]pyrazol-1-yl)acetamido)-2-(3,5-difluorophenyl)ethyl)-6-(3-methyl-3-(methylsulfonyl)but-1-yn-1-yl)pyridin-3-yl)-1-(2,2,2-trifluoroethyl)-1H-indazol-3-yl)methylsulfonamido)-2-methyl-4-oxobutan-2-yl)-3-methyl-5-(phosphonooxy)benzoyl)-L-aspartic acid]",1100 µg/mL,7/68 μM,7/68 μM,,,,,
"Cc1cc(CC(=O)NCP(=O)(O)O)c(C(C)(C)CC(=O)N(c2nn(CC(F)(F)F)c3c(-c4ccc(C#CC(C)(C)S(C)(=O)=O)nc4[C@H](Cc4cc(F)cc(F)c4)NC(=O)Cn4nc(C(F)(F)F)c5c4C(F)(F)[C@@H]4C[C@H]54)ccc(Cl)c23)S(C)(=O)=O)c(OP(=O)(O)O)c1 [Compound 61, ((2-(2-(4-(N-(4-chloro-7-(2-((S)-1-(2-((3bS,4aR)-5,5-difluoro-3-(trifluoromethyl)-3b,4,4a,5-tetrahydro-1H-cyclopropa[3,4]cyclopenta[1,2-c]pyrazol-1-yl)acetamido)-2-(3,5-difluorophenyl)ethyl)-6-(3-methyl-3-(methylsulfonyl)but-1-yn-1-yl)pyridin-3-yl)-1-(2,2,2-trifluoroethyl)-1H-indazol-3-yl)methylsulfonamido)-2-methyl-4-oxobutan-2-yl)-5-methyl-3-(phosphonooxy)phenyl)acetamido)methyl)phosphonic acid]",> 10000 µg/mL,2/70 μM,2/70 μM,,,,,
"Cc1cc(CP(=O)(O)O)cc(OP(=O)(O)O)c1C(C)(C)CC(=O)N(c1nn(CC(F)(F)F)c2c(-c3ccc(C#CC(C)(C)S(C)(=O)=O)nc3[C@H](Cc3cc(F)cc(F)c3)NC(=O)Cn3nc(C(F)(F)F)c4c3C(F)(F)[C@@H]3C[C@H]43)ccc(Cl)c12)S(C)(=O)=O [Compound 56, (4-(4-(N-(4-chloro-7-(2-((S)-1-(2-((3bS,4aR)-5,5-difluoro-3-(trifluoromethyl)-3b,4,4a,5-tetrahydro-1H-cyclopropa[3,4]cyclopenta[1,2-c]pyrazolyl)acetamido)-2-(3,5-difluorophenyl)ethyl)-6-(3-methyl-3-(methylsulfonyl)but-1-ynyl)pyridin-3-yl)-1-(2,2,2-trifluoroethyl)-1H-indazol-3-yl)methylsulfonamido)-2-methyloxobutan-2-yl)-3-methyl-5-(phosphonooxy)benzyl)phosphonic acid]",> 10000 µg/mL,1/100 μM,1/100 μM,,,,,
"CC(C)(C#Cc1ccc(-c2ccc(Cl)c3c(N(C(=O)CCCC(=O)OCOP(=O)(O)O)S(C)(=O)=O)nn(CC(F)(F)F)c23)c([C@H](Cc2cc(F)cc(F)c2)NC(=O)Cn2nc(C(F)(F)F)c3c2C(F)(F)[C@@H]2C[C@H]32)n1)S(C)(=O)=O [Compound 29, (phosphonooxy)methyl 5-(N-(4-chloro-7-(2-((S)-1-(2-((3bS,4aR)-5,5-difluoro-3-(trifluoromethyl)-3b,4,4a,5-tetrahydro-1H-cyclopropa[3,4]cyclopenta[1,2-c]pyrazol-1-yl)acetamido)-2-(3,5-difluorophenyl)ethyl)-6-(3-methyl-3-(methylsulfonyl)but-1-yn-1-yl)pyridin-3-yl)-1-(2,2,2-trifluoroethyl)-1H-indazol-3-yl)methylsulfonamido)-5-oxopentanoate]",,,,268 µg/mL,130 µg/mL,2 μM,92 μM,
"CN(C(=O)N(c1nn(CC(F)(F)F)c2c(-c3ccc(C#CC(C)(C)S(C)(=O)=O)nc3[C@H](Cc3cc(F)cc(F)c3)NC(=O)Cn3nc(C(F)(F)F)c4c3C(F)(F)[C@@H]3C[C@H]43)ccc(Cl)c12)S(C)(=O)=O)c1ccccc1OP(=O)(O)O [Compound 54, 2-(3-(4-chloro-7-(2-((S)-1-(2-((3bS,4aR)-5,5-difluoro-3-(trifluoromethyl)-3b,4,4a,5-tetrahydro-1H-cyclopropa[3,4]cyclopenta[1,2-c]pyrazol-1-yl)acetamido)-2-(3,5-difluorophenyl)ethyl)-6-(3-methyl-3-(methylsulfonyl)but-1-yn-1-yl)pyridin-3-yl)-1-(2,2,2-trifluoroethyl)-1H-indazol-3-yl)-1-methyl-3-(methylsulfonyl)ureido)phenyl dihydrogen phosphate]",1090 µg/mL,1/63 μM,1/63 μM,,,,,561 µg/mL
"CC(C)(C#Cc1ccc(-c2ccc(Cl)c3c(N(C(=O)[C@@H](N)CCCNC(=N)N)S(C)(=O)=O)nn(CC(F)(F)F)c23)c([C@H](Cc2cc(F)cc(F)c2)NC(=O)Cn2nc(C(F)(F)F)c3c2C(F)(F)[C@@H]2C[C@H]32)n1)S(C)(=O)=O [Compound 22, 2-amino-N-(4-chloro-7-(2-((S)-1-(2-((3bS,4aR)-5,5-difluoro-3-(trifluoromethyl)-3b,4,4a,5-tetrahydro-1H-cyclopropa[3,4]cyclopenta[1,2-c]pyrazolyl)acetamido)-2-(3,5-difluorophenyl)ethyl)-6-(3-methyl-3-(methylsulfonyl)but-1-ynyl)pyridin-3-yl)-1-(2,2,2-trifluoroethyl)-1H-indazol-3-yl)-5-guanidino-N-(methylsulfonyl)pentanamide]",,,,,0.2 µg/mL,100 μM,27 μM,
"CN(CC(=O)N(c1nn(CC(F)(F)F)c2c(-c3ccc(C#CC(C)(C)S(C)(=O)=O)nc3[C@H](Cc3cc(F)cc(F)c3)NC(=O)Cn3nc(C(F)(F)F)c4c3C(F)(F)[C@@H]3C[C@H]43)ccc(Cl)c12)S(C)(=O)=O)C(=O)OCOP(=O)(O)O [Compound 37, (phosphonooxy)methyl (2-(N-(4-chloro-7-(2-((S)-1-(2-((3bS,4aR)-5,5-difluoro-3-(trifluoromethyl)-3b,4,4a,5-tetrahydro-111-cyclopropa[3,4]cyclopenta[1,2-c]pyrazol-1-yl)acetamido)-2-(3,5-difluorophenyl)ethyl)-6-(3-methyl-3-(methylsulfonyl)but-1-yn-1-yl)pyridin-3-yl)-1-(2,2,2-trifluoroethyl)-1H-indazol-3-yl)methylsulfonamido)-2-oxoethyl)(methyl)carbamate]",674 µg/mL,,,,,1 μM,79 μM,
"CC(C)(C#Cc1ccc(-c2ccc(Cl)c3c(N(C(=O)Cc4ccc(OP(=O)(O)O)cc4)S(C)(=O)=O)nn(CC(F)(F)F)c23)c([C@H](Cc2cc(F)cc(F)c2)NC(=O)Cn2nc(C(F)(F)F)c3c2C(F)(F)[C@@H]2C[C@H]32)n1)S(C)(=O)=O [Compound 51, 4-(2-(N-(4-chloro-7-(2-((S)-1-(2-((3bS,4aR)-5,5-difluoro (trifluoromethyl)-3b,4,4a,5-tetrahydro-1H-cyclopropa[3,4]cyclopenta[1,2-c]pyrazolyl)acetamido)-2-(3,5-difluorophenyl)ethyl)-6-(3-methyl-3-(methylsulfonyl)but-1-ynyl)pyridin-3-yl)-1-(2,2,2-trifluoroethyl)-1H-indazol-3-yl)methylsulfonamido)oxoethyl)phenyl dihydrogen phosphate]",1750 µg/mL,1/100 μM,1/100 μM,,,,,1450 µg/mL
"CN(C)CCCC[C@@H](C(=O)N(c1nn(CC(F)(F)F)c2c(-c3ccc(C#CC(C)(C)S(C)(=O)=O)nc3[C@H](Cc3cc(F)cc(F)c3)NC(=O)Cn3nc(C(F)(F)F)c4c3C(F)(F)[C@@H]3C[C@H]43)ccc(Cl)c12)S(C)(=O)=O)N(C)C [Compound 6, (S)—N-(4-chloro-7-(2-((S)-1-(2-((3bS,4aR)-5,5-difluoro-3-(trifluoromethyl)-3b,4,4a,5-tetrahydro-1H-cyclopropa[3,4]cyclopenta[1,2-c]pyrazol-1-yl)acetamido)-2-(3,5-difluorophenyl)ethyl)-6-(3-methyl-3-(methylsulfonyl)but-1-yn-1-yl)pyridin-3-yl)-1-(2,2,2-trifluoroethyl)-1H-indazol-3-yl)-2,6-bis(dimethylamino)-N-(methylsulfonyl)hexanamide]",,,,21 µg/mL,1 µg/mL,100 μM,9 μM,
